Data as given in PubChem BioAssay AID190 (DTP/NCI, 2004).
“And” between values parts separate entries of the source, which are not always exact repeats. Equal values may be shown once. Toxic doses and inconclusive results are not listed. Rule for the calls: active = survival T/C of 150% or more; inactive = T/C below 125% in these data.

Tested on: AKR/Lw mice, AKR lymphoma ip, median survival T/C
Test: NCI In Vivo Anticancer Drug Screen. Data for tumor model Lymphoma AKR (Transplanted) (intraperitoneal) in AKR/Lw mice
Details: endpoint: median survival time, higher = longer survival
Description: The antitumor activity of compounds was measured in mice bearing transplantable tumors. Survival or tumor size were measured and the results are expressed as the measurement made in the treated group (T) divided by the measurement made in the vehicle treated control group (C). The tumor model used in this assay is Lymphoma AKR (Transplanted) (intraperitoneal) in AKR/Lw mice

[1] = dose: 100.0 mg/kg/injection, schedule: Q01DX001 (ip), vehicle: saline
[2] = dose: 100.0 mg/kg/injection, schedule: Q04DX003 (ip), vehicle: other
[3] = dose: 200.0 mg/kg/injection, schedule: Q01DX001 (ip), vehicle: saline
[4] = dose: 200.0 mg/kg/injection, schedule: Q04DX003 (ip), vehicle: other
[5] = dose: 25.0 mg/kg/injection, schedule: Q01DX001 (ip), vehicle: saline
[6] = dose: 50.0 mg/kg/injection, schedule: Q01DX001 (ip), vehicle: saline
[7] = dose: 50.0 mg/kg/injection, schedule: Q04DX003 (ip), vehicle: Klucel (hydroxypropylcellulose) (HPC)
[8] = dose: 100.0 mg/kg/injection, schedule: Q04DX003 (ip), vehicle: Klucel (hydroxypropylcellulose) (HPC)
[9] = dose: 200.0 mg/kg/injection, schedule: Q04DX003 (ip), vehicle: Klucel (hydroxypropylcellulose) (HPC)
[10] = dose: 400.0 mg/kg/injection, schedule: Q01DX001 (ip), vehicle: saline
[11] = dose: 100.0 mg/kg/injection, schedule: Q01DX001 (ip), vehicle: Klucel (hydroxypropylcellulose) (HPC)
[12] = dose: 200.0 mg/kg/injection, schedule: Q01DX001 (ip), vehicle: Klucel (hydroxypropylcellulose) (HPC)
[13] = dose: 400.0 mg/kg/injection, schedule: Q01DX001 (ip), vehicle: Klucel (hydroxypropylcellulose) (HPC)

Measured: T/C

COc1ccc(S(=O)O)cc1NC(C)=O
inactive: dose: 50.0 mg/kg/injection, schedule: Q04DX003 (ip), vehicle: other 95 % of control | [1] 107 % of control | [2] 97 % of control | [3] 101 % of control | [4] 95 % of control

COc1ccc2cc1Oc1ccc(cc1)C[C@H]1c3cc(c(OC)cc3CCN1C)Oc1c(OC)c(OC)cc3c1[C@H](C2)N(C)CC3
inactive: dose: 6.2 mg/kg/injection, schedule: Q01DX009 (ip), vehicle: Klucel (hydroxypropylcellulose) (HPC) 110 % of control | dose: 7.5 mg/kg/injection, schedule: Q01DX009 (ip), vehicle: saline 90 % of control | dose: 12.5 mg/kg/injection, schedule: Q01DX009 (ip), vehicle: Klucel (hydroxypropylcellulose) (HPC) 107 % of control and 113 % of control | dose: 12.5 mg/kg/injection, schedule: Q01DX009 (ip), vehicle: saline 111 % of control | dose: 25.0 mg/kg/injection, schedule: Q01DX001 (ip), vehicle: Klucel (hydroxypropylcellulose) (HPC) 94 % of control (2×) and 97 % of control | [5] 95 % of control | dose: 25.0 mg/kg/injection, schedule: Q01DX009 (ip), vehicle: Klucel (hydroxypropylcellulose) (HPC) 97 % of control and 100 % of control (2×) | dose: 25.0 mg/kg/injection, schedule: Q01DX009 (ip), vehicle: saline 94 % of control | dose: 25.0 mg/kg/injection, schedule: Q04DX003 (ip), vehicle: Klucel (hydroxypropylcellulose) (HPC) 87 % of control | dose: 25.0 mg/kg/injection, schedule: Q04DX003 (ip), vehicle: saline 88 % of control and 109 % of control | dose: 32.0 mg/kg/injection, schedule: Q04DX003 (ip), vehicle: water 100 % of control | dose: 50.0 mg/kg/injection, schedule: Q01DX001 (ip), vehicle: Klucel (hydroxypropylcellulose) (HPC) 94 % of control and 110 % of control | [6] 95 % of control | dose: 50.0 mg/kg/injection, schedule: Q01DX009 (ip), vehicle: Klucel (hydroxypropylcellulose) (HPC) 94 % of control and 107 % of control | dose: 50.0 mg/kg/injection, schedule: Q01DX009 (ip), vehicle: saline 94 % of control and 116 % of control | [7] 87 % of control | dose: 50.0 mg/kg/injection, schedule: Q04DX003 (ip), vehicle: saline 97 % of control and 111 % of control and 114 % of control | dose: 64.0 mg/kg/injection, schedule: Q04DX003 (ip), vehicle: water 96 % of control | dose: 75.0 mg/kg/injection, schedule: Q01DX001 (ip), vehicle: Klucel (hydroxypropylcellulose) (HPC) 94 % of control | dose: 100.0 mg/kg/injection, schedule: Q01DX009 (ip), vehicle: Klucel (hydroxypropylcellulose) (HPC) 100 % of control | dose: 100.0 mg/kg/injection, schedule: Q01DX009 (ip), vehicle: saline 100 % of control and 106 % of control | [8] 97 % of control | dose: 100.0 mg/kg/injection, schedule: Q04DX003 (ip), vehicle: saline 98 % of control and 100 % of control and 111 % of control | dose: 128.0 mg/kg/injection, schedule: Q04DX003 (ip), vehicle: water 107 % of control | [3] 87 % of control and 104 % of control and 111 % of control | dose: 200.0 mg/kg/injection, schedule: Q01DX009 (ip), vehicle: saline 88 % of control and 94 % of control | [9] 100 % of control | dose: 200.0 mg/kg/injection, schedule: Q04DX003 (ip), vehicle: saline 97 % of control | dose: 256.0 mg/kg/injection, schedule: Q04DX003 (ip), vehicle: water 100 % of control | [10] 93 % of control and 100 % of control (2×)

CO[C@H]1/C=C/O[C@@]2(C)Oc3c(C)c(O)c4c(O)c(c(/C=N/N5C(C)CN(Cc6ccccc6)CC5C)c(O)c4c3C2=O)NC(=O)/C(C)=C\C=C\[C@H](C)[C@H](O)[C@@H](C)[C@@H](O)[C@@H](C)[C@H](OC(C)=O)[C@@H]1C (stereo partly drawn)
inactive: dose: 12.5 mg/kg/injection, schedule: Q01DX008 (ip), vehicle: Klucel (hydroxypropylcellulose) (HPC) 99 % of control | dose: 25.0 mg/kg/injection, schedule: Q01DX008 (ip), vehicle: Klucel (hydroxypropylcellulose) (HPC) 104 % of control | dose: 50.0 mg/kg/injection, schedule: Q01DX008 (ip), vehicle: Klucel (hydroxypropylcellulose) (HPC) 91 % of control | dose: 100.0 mg/kg/injection, schedule: Q01DX008 (ip), vehicle: Klucel (hydroxypropylcellulose) (HPC) 103 % of control | dose: 200.0 mg/kg/injection, schedule: Q01DX008 (ip), vehicle: Klucel (hydroxypropylcellulose) (HPC) 96 % of control | dose: 400.0 mg/kg/injection, schedule: Q01DX008 (ip), vehicle: Klucel (hydroxypropylcellulose) (HPC) 95 % of control

c1cc2cc3c(cc2cc1CC1=NCCc2cc4c(cc21)OCO4)OCO3
inactive: dose: 100.0 mg/kg/injection, schedule: Q01DX001 (ip), vehicle: other 105 % of control | [2] 100 % of control | dose: 200.0 mg/kg/injection, schedule: Q01DX001 (ip), vehicle: other 100 % of control | [4] 100 % of control | dose: 400.0 mg/kg/injection, schedule: Q01DX001 (ip), vehicle: other 102 % of control | dose: 400.0 mg/kg/injection, schedule: Q04DX003 (ip), vehicle: other 100 % of control

COc1cc2c(cc1OC)C1CCN3CCCC3N1CC2 (stereo not drawn)
inactive: [11] 100 % of control

O=C(/C=C/c1cccc([N+](=O)[O-])c1)NCCBr
inactive: [11] 102 % of control | [12] 104 % of control | [13] 86 % of control

CC(C)(C)/[N+]([O-])=[N+](\[O-])C(C)(C)C (tested in a mixture with another compound)
inactive: [11] 95 % of control | [12] 97 % of control | [13] 100 % of control

CC1(C)N=C(N)N=C(N)N1c1cc(Cl)ccc1Cl
inactive: [5] 93 % of control | [6] 93 % of control

COc1ccc(N2CSC(=S)N(c3ccc(OC)cc3)C2)cc1
inactive: [11] 88 % of control | [12] 88 % of control | [13] 92 % of control

CC1(C)CCN1Cc1ccccc1
inactive: dose: 12.5 mg/kg/injection, schedule: Q01DX001 (ip), vehicle: saline 97 % of control | [5] 100 % of control | [6] 100 % of control

COc1cc2c(cc1OC)[C@H]1CNC[C@H]1[C@@H](c1ccccc1)C2
inactive: dose: 75.0 mg/kg/injection, schedule: Q04DX003 (ip), vehicle: saline 110 % of control | [1] 105 % of control | dose: 150.0 mg/kg/injection, schedule: Q04DX003 (ip), vehicle: saline 103 % of control | [3] 100 % of control | [10] 97 % of control

COC(=O)C1(C)CCC(c2ccc(OC)cc2)CC1=O (stereo not drawn)
inactive: [6] 113 % of control | [7] 93 % of control | [1] 105 % of control | [8] 106 % of control | [3] 105 % of control | [9] 112 % of control

COc1ccc(NC(=S)Nc2ccccn2)cc1
inactive: [11] 100 % of control

CCOC(=O)CCCl
inactive: [12] 111 % of control | [13] 97 % of control

CN(C)CCCNC(=O)Nc1ccccc1
inactive: [11] 103 % of control | [12] 93 % of control

CCOc1ccc2nc(N)sc2c1
inactive: [11] 89 % of control | [12] 92 % of control

O=c1[nH]cc(-c2ccccc2)c(=O)[nH]1
inactive: [1] 94 % of control | [3] 88 % of control | [10] 97 % of control
